# Source: article PMC3689833, “Neurochemical Changes in the Mouse Hippocampus Underlying the Antidepressant Effect of Genetic Deletion of P2X7 Receptors” (PLoS ONE, 2013)
# Tests used:
# P2rx7+/+ mice = assay: Automated tail suspension test (TST), LPS-induced depressive behavior; type: in vivo, mouse; conditions: LPS 1 mg/kg i.p. 24 h before, antagonist 50 mg/kg i.p. 30 min before test
# Procedure: All experiments and treatments were performed during the light phase (7.00 AM–7.00 PM). The TST was conducted using an automated tail suspension device (BIO-TST2, Bioseb, France) in accordance with a previously described method. The device consisted of a single tail suspension module with three chambers, connected to a personal computer that recorded the activity of the animals during the test sessions. Three mice were individually suspended by the tail onto the hooks of the device using adhesive tape (distance from tip of tail was 1–2 cm). The measurements were automatically recorded within 5–10 seconds after placing the last animal into the chamber, and each measurement lasted 6 min. […] The threshold level was set at 6. To examine endotoxin-induced depressive behavior, the animals were subjected to bacterial lipopolysaccharide injection (LPS, serotype 055:B5, Sigma, St. Louis, […], USA, 1 mg/kg i.p.) at 24 h before a single 6-min test period. Brilliant blue G (BBG, 50 mg/kg i.p.) or an equal volume of saline was injected at 30 min before the test period. The time of immobility was expressed in sec. The P2rx7+/+ and P2rx7−/− mice were subjected to alternation testing. […] The data of these animals were excluded from the calculations during the post hoc analysis.
# [1] = system: BDNF level in hippocampal slices; assay: BDNF protein assay (ELISA), in vitro study in hippocampal slices; type: cell-based, mouse; conditions: BBG 100 nM
# Procedure: The P2rx7 wild type and knockout mice were anesthetized under light CO2 inhalation and decapitated. The hippocampus was dissected in ice-cold Krebs solution saturated with 95% O2 and 5% CO2, sectioned (400 µm thick slices) using a McIlwain tissue chopper and incubated in 2 ml of modified Krebs solution in the presence of 1 ml Hibernate medium, ascorbic acid (300 µM) and Na2EDTA (30 µM) for 60 min. The medium was bubbled continuously with 95% O2 and 5% CO2 and maintained at 37°C. The P2rx7 agonist, BzATP, was added to the incubation solution for 30 min, whereas BBG was applied 15 min before BzATP application. RO-256981, 6-cyano-7-nitroquinoxaline-2,3-dione (CNQX) and 3-Chloro-4-fluoro-N-[4[[2(phenylcarbonyl)hydrazino]carbonyl]benzyl] benzenesulfonamide (TCN-201) were applied for 15 min, while MCPG was administered for 30 min. The group I metabotropic glutamate receptor agonist, dihydroxyphenylglycine (DHPG), was administered for 10 min. The DHPG, MCPG, and RO-256981 dosages were chosen based on previous studies, [47], [48]. In the experiments with BzATP, Mg^2+ was omitted from the incubation solution. The hippocampal slices were collected, frozen on dry ice and stored at −70°C until further investigation. Each experimental group contained 3–4 mice.
# At the time of analysis, the samples were removed from the freezer and weighed. The BDNF extraction procedure was performed in accordance with the methods of a previous study. For the BDNF assays, 2 ml lysis buffer (100 mM PIPES, pH 7, 500 mM NaCl, 0.2% Triton X-100, 0.1% NaN3, 2% BSA, 2 mM EDTA, 200 µM PMSF, 10 µg/mL aprotinin, 1 µg/mL leupeptin, and 0.5 mM sodium vanadate) was added to each sample, and the hippocampus was sonicated at power level 2 using pulses at 1 sec intervals for 10–15 sec. Subsequently, the samples were centrifuged at 16,000 × g for 30 min at 4°C. 100 µl aliquots of the resulting supernatants were removed and diluted with 400 µl of DPBS buffer (137 mM NaCl, 2.68 mM KCl, 1.47 mM KH2PO4, 8.1 mM Na2HPO4 (pH 7.35), 0.9 mM CaCl2·H2O, and 0.5 mM MgCl2·H2O). The supernatants were collected and stored at −70?C until further analysis. For the total free BDNF measurement, the samples were acid treated with 1 µl of 1 N HCl for each 50 µl of diluted samples to decrease the pH to 2.5, followed by incubation at room temperature for 15 min. The samples were neutralized with 1 µl of 1 N NaOH for each 50 µl of diluted samples. The levels of BDNF (both precursor and mature forms) expression were evaluated using an enzyme-linked immunosorbent assay (ELISA) kit and a BDNF Emax ImmunoAssay System (Promega Corporation, Madison, WI, USA), which is specific for mouse BDNF protein, according to the manufacturer’s instructions. The BDNF levels were calculated by plotting the optical density (OD) of each sample against the standard curve. A seven-point standard curve using two-fold serial dilutions in Reagent Diluent (according the manufacturer’s instructions) and a high standard of 500 pg/ml were used for the determination of BDNF levels. The assay detection limits were <15 pg/ml. Absorbance was measured at 450 nm using a Perkin-Elmer Victor 3V 1420 Multilabel Counter.
structure (smiles),measurement,setting,value
"CCOc1ccc(Nc2ccc(/C(=C3C=C/C(=[N+](/CC)Cc4cccc(S(=O)(=O)[O-])c4)C=C/3C)c3ccc(N(CC)Cc4cccc(S(=O)(=O)O)c4)cc3C)cc2)cc1 [BBG, Brilliant blue G]",LPS-induced depressive behavior in TST (immobility),P2rx7+/+ mice,significantly attenuated
same,BDNF level in hippocampal slices in the presence of BzATP,"[1]; P2rx7+/+ slices, + BzATP 100 µM, Mg2+-free, RO-256981 3 µM, MCPG 200 µM, DHPG 100 µM",77.87 ± 4.24 pg/mL
same,BDNF level in hippocampal slices,[1]; P2rx7+/+ slices,118.22 ± 1.59 pg/mL
same,increase of basal BDNF level,[1]; P2rx7+/+ slices,656%
same,BDNF level in hippocampal slices,[1]; P2rx7−/− slices,60.31 ± 0.31 pg/mL
same,increase of basal BDNF level,[1]; P2rx7−/− slices,272.7%
